Data published in patent publication US9326988B2, “Treatment and/or prevention of parkinson's disease dementia with ceftriaxone” (CHUNG SHAN MEDICAL UNIVERSITY, priority 2012, dated 2016).

Tests used:
normal rats [1] = assay: T-maze test (working memory) in sham-operated rats; assay type: in vivo, male Wistar rats; details: determined 10th day (FIG. 3)
Procedure: (§1) The rats in the sham-operated groups were generally subjected to the same surgical procedures for the rats in the pathological control group, the preventive groups, and the treatment groups, except that an equal volume of saline was infused bilaterally into the SNc of the mesencephalon of rats in the shame-operated groups.
(§2) 5 days before the MPTP-HCl injection, ceftriaxone (Sigma) was administered to the rats in the preventive groups 1,2 via intraperitoneal injection respectively at a daily dose of 100 mg/kg and at a daily dose of 200 mg/kg until the end of the 14th day after the MPTP-HCl injection. After the MPTP-HCl injection, ceftriaxone was administered to the rats in the treatment group 1 and the sham-operated groups 2,3 via intraperitoneal injection respectively at a daily dose of 200 mg/kg, at a daily dose of 100 mg/kg, and at a daily dose of 200 mg/kg, and saline was administered to the rats in the pathological control group and the sham-operated group 1 via intraperitoneal injection at a daily dose of 1 mL/kg. In addition, starting on the 3rd day after the MPTP-HCl injection, ceftriaxone was administered to the rats in the treatment groups 2,3 via intraperitoneal injection respectively at a daily dose of 100 mg/kg and at a daily dose of 200 mg/kg. […]

normal rats [2] = assay: Object recognition test in sham-operated rats; assay type: in vivo, male Wistar rats; details: determined 14th day (FIG. 4)
Procedure: as §1
as §2, with “mL/kg.” for “mL/kg. In addition, starting on the 3rd day after the MPTP-HCl injection, ceftriaxone was administered to the rats in the treatment groups 2,3 via intraperitoneal injection respectively at a daily dose of 100 mg/kg and at a daily dose of 200 mg/kg.”
The object recognition test is described as follows. […] By virtue of the video camera, the time spent by the respective rat exploring an object (i.e. the object A1, A2, A3, or B) during a trial (i.e. the first, second, third, or fourth trial) was measured. […]

[3] = tested on: rats chronically exposed to hypobaric hypoxia; details: cited from earlier work

CO/N=C(\C(=O)N[C@@H]1C(=O)N2C(C(=O)O)=C(CSc3nc(=O)c(=O)[nH]n3C)CS[C@H]12)c1csc(N)n1 [ceftriaxone, Ceftriaxone]
correct response rate compared to sham-operated group 1 (saline) (normal rats [1]; sham-operated group 2: 100 mg/kg daily i.p. to 14th day): no statistical significance | correct response rate compared to sham-operated group 1 (saline) (normal rats [1]; sham-operated group 3: 200 mg/kg daily i.p. to 14th day): no statistical significance | percentage of exploration time spent on object B in the fourth trial versus object A3 in the third trial (normal rats [2]; sham-operated group 2: 100 mg/kg daily i.p.): there is statistical significance | percentage of exploration time spent on object B in the fourth trial versus object A3 in the third trial (normal rats [2]; sham-operated group 3: 200 mg/kg daily i.p.): there is statistical significance | cognitive impairment resulting from hypobaric hypoxia [3]: capable of ameliorating the cognitive impairment resulting from hypobaric hypoxia | neuronal degeneration and chromatin condensation [3]: decreasing neuronal degeneration and chromatin condensation | oxidative stress in the hippocampus [3]: reducing oxidative stress in the hippocampus
